From patent US12310975B2, “Modulators of BCL6 proteolysis and associated methods of use” (Arvinas Operations, Inc., priority 2019, dated 2025)
Where two headings read alike, the source gives them in different places.

Biological target: BCL6 (Homo sapiens (Human), UniProt P41182)
Assay: Immunofluorescence high content imaging of BCL6 degradation in T47D cells
Assay type: cell-based
Settings: for DC50: class symbols A-D, read-out: EC50 (nM)*
Summary of the method: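 Seed T47D in RPMI1640-10% FBS to reach ~70-90% confluence at endpoint; add degrader next day (11-point 3-fold series, top 0.1 or 1 μM final) for 3 days. Then fix, permeabilize, stain BCL6 with nuclear Hoechst, and image.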

Dmax (T47D cells) [%] | IC50 (T47D cells) [nM] | DC50 [nM] | Structure (SMILES) | further results
≥ 70 | < 10 | – | CNC(=O)COc1cc2cc(Nc3nc(N4CCC(CN5CCC(c6ccc7c(c6)C(=O)N(C6CCC(=O)NC6=O)C7=O)CC5)CC4)ncc3Cl)ccc2n(C(C)C)c1=O (stereo not drawn) [compound 365, 2-{[6-({5-chloro-2-[4-({4-[2-(2,6-dioxopiperidin-3-yl)-1,3-dioxo-2,3-dihydro-1H-isoindol-5-yl]piperidin-1-yl}methyl)piperidin-1-yl]pyrimidin-4-yl}amino)-2-oxo-1-(propan-2-yl)-1,2-dihydroquinolin-3-yl]oxy}-N-methylacetamide] | –
– | – | – | CNC(=O)COc1cc2cc(Nc3nc(N4CCC(OC5CN(c6cccc7c6C(=O)N(C6CCC(=O)NC6=O)C7=O)C5)CC4)ncc3Cl)ccc2n(C)c1=O (stereo not drawn) [compound 255, 2-((6-((5-chloro-2-(4-((1-(2-(2,6-dioxopiperidin-3-yl)-1,3-dioxoisoindolin-4-yl)azetidin-3-yl)oxy)piperidin-1-yl)pyrimidin-4-yl)amino)-1-methyl-2-oxo-1,2-dihydroquinolin-3-yl)oxy)-N-methylacetamide] | IC50: < 10 nM; Dmax (T47D): < 50%
– | – | 10 to 50 | CNC(=O)COc1cc2cc(Nc3nc(N4CCC(OCCOCCOCCOCCOCC(=O)N[C@H](C(=O)N5C[C@H](O)C[C@H]5C(=O)NCc5ccc(-c6scnc6C)cc5)C(C)(C)C)CC4)ncc3Cl)ccc2n(C)c1=O [compound 78, (2S,4R)-1-((S)-2-(tert-butyl)-17-((1-(5-chloro-4-((1-methyl-3-(2-(methylamino)-2-oxoethoxy)-2-oxo-1,2-dihydroquinolin-6-yl)amino)pyrimidin-2-yl)piperidin-4-yl)oxy)-4-oxo-6,9,12,15-tetraoxa-3-azaheptadecanoyl)-4-hydroxy-N-(4-(4-methylthiazol-5-yl)benzyl)pyrrolidine-2-carboxamide] | –
– | – | 50 to 100 | CNC(=O)COc1cc2cc(Nc3nc(N4CCC(Cc5cn(CCOCCOCCOCCOCCOCC(=O)N[C@H](C(=O)N6C[C@H](O)C[C@H]6C(=O)N[C@@H](C)c6ccc(-c7scnc7C)cc6)C(C)(C)C)nn5)CC4)ncc3Cl)ccc2n(C)c1=O [compound 124, (2S,4R)-1-((S)-2-(tert-butyl)-20-(4-((1-(5-chloro-4-((1-methyl-3-(2-(methylamino)-2-oxoethoxy)-2-oxo-1,2-dihydroquinolin-6-yl)amino)pyrimidin-2-yl)piperidin-4-yl)methyl)-1H-1,2,3-triazol-1-yl)-4-oxo-6,9,12,15,18-pentaoxa-3-azaicosanoyl)-4-hydroxy-N-((S)-1-(4-(4-methylthiazol-5-yl)phenyl)ethyl)pyrrolidine-2-carboxamide] | –
– | – | > 100 | CNC(=O)COc1cc2cc(Nc3nc(N4CCC(OCCOCCOCCNc5cccc6c5C(=O)N(C5CCC(=O)NC5=O)C6=O)CC4)ncc3Cl)ccc2n(C)c1=O (stereo not drawn) [compound 57, 2-((6-((5-chloro-2-(4-(2-(2-(2-((2-(2,6-dioxopiperidin-3-yl)-1,3-dioxoisoindolin-4-yl)amino)ethoxy)ethoxy)ethoxy)piperidin-1-yl)pyrimidin-4-yl)amino)-1-methyl-2-oxo-1,2-dihydroquinolin-3-yl)oxy)-N-methylacetamide] | –
50 to 70 | < 10 | – | CNC(=O)COc1cc2cc(Nc3nc(N4CCC5(CC4)CN(CC4CCN(c6cccc7c6CN(C6CCC(=O)NC6=O)C7=O)CC4)C5)ncc3Cl)ccc2n(C(C)C)c1=O (stereo not drawn) [compound 443, 2-{[6-({5-chloro-2-[2-({1-[2-(2,6-dioxopiperidin-3-yl)-1-oxo-2,3-dihydro-1H-isoindol-4-yl]piperidin-4-yl}methyl)-2,7-diazaspiro[3.5]nonan-7-yl]pyrimidin-4-yl}amino)-2-oxo-1-(propan-2-yl)-1,2-dihydroquinolin-3-yl]oxy}-N-methylacetamide] | –
